These results are taken from patent publication US6197751A, “Thymosin α1 promotes tissue repair, angiogenesis and cell migration” (The United States of America as represented by the …, priority 1998, dated 2001).

Common to all, as to format: cell-based
One test has as its system Monocytes. As to the kind of experiment: Boyden chamber migration, monocytes. The note with it: Monocytes, positive control 10^-7 M. How it is done:
[The procedure below names another cell line; the source lists this cell line under the same test.] (§1) Several cell types were tested to determine if the migratory stimulation observed with Tα1 was specific. […] HUVEC migration assays were carried out in Boyden chambers using 12 ,m pore PVP free filters coated with either a 0.1 mg/ml or 0.05 mg/ml solution of collagen IV as previously reported (Malinda et al., FASEB J. 11:474, 1997). Each condition was assayed in triplicate wells at least three times unless indicated. HCAECs, AOSMCs, FFs, HT1080 cells and neutrophils were cultured or isolated and assayed for migration as previously reported (Malinda et al., FASEB J. 11:474, 1997).

The test system of another test is Neutrophils. The test is described as follows: Boyden chamber migration, neutrophils. The note with it: Neutrophils, positive control 10^-7 M. The method, then: (§2) Human umbilical vein endothelial cells (HUVECs) were isolated from freshly delivered cords according to Jaffe et al. (J. Clin. Invest. 52: 2745, 1973) and grown on Nunclon dishes (Nunc, Denmark) in RPMI 1640 (Life Technologies, Gaithersburg, Md.) supplemented with 20% bovine calf serum (Hyclone Laboratories, Logan Utah), 100 U/ml penicillin/streptomycin (Life Technologies, Gaithersburg, Md.), 50 μg/ml gentamycin (Life Technologies, Gaithersburg, Md.), 2.7 μg/ml amphotericin B (fungizone)(Life Technologies, Gaithersburg, Md.), 5 U/ml sodium heparin (Fisher Scientific, Pittsburgh, Pa.) and 200 μg/ml endothelial cell growth supplement (ECGS) (Collaborative Research, Bedford, Mass.). Cells between passage 3 and 5 were used for all experiments. Human coronary artery endothelial cells (HCAECs) were grown on Nunclon dishes in the HUVEC media. Foreskin fibroblasts (Ffs) were grown in DMEM supplemented with 10% fetal bovine serum (Hyclone) on Falcon (Becton Dickinson, N.J.) dishes. HT1080 cells (human fibrosarcoma cell line) were grown in Falcon flasks in DMEM supplemented with 10% fetal bovine serum. Neutrophils were freshly isolated from buffy coats as previously reported (Kibbey et al., J. Cell Phys. 160:185, 1994). Human aortic smooth muscle cells (AOSMCs) were grown in smooth muscle cell media (Clonetics, San Diego, Calif.) on Nunclon dishes.
as §1

Another test deals with foreskin fibroblasts. The test is described as follows: Boyden chamber migration, foreskin fibroblasts. Conditions: FF, positive control 10 ng/ml. The method, then:
as §2, §1

The subject of test [1] is HT1080 cells (human fibrosarcoma cell line). The test is described as follows: Boyden chamber migration, HT1080 cells. The method, then: as §2, §1
Test [2] deals with human aortic smooth muscle cells. As to the kind of experiment: Boyden chamber migration, aortic smooth muscle cells. Conditions: AOSMC, positive control 10 ng/ml. The method, then:
as §2, §1

Turning to FMLP [reference compound], the “average number of cells that migrated ± SEM” value in the test with Monocytes turned out to be 74 ± 2.1; in the test on Neutrophils, 1404.7 ± 58.2. As to “basic fibroblast growth factor [bFGF, reference compound]”, in the test on foreskin fibroblasts, the “average number of cells that migrated ± SEM” value is reported as 12.3 ± 0.3.

With laminin [LN, reference compound], the “average number of cells that migrated ± SEM” value came out at 661.2 ± 37 in test [1] (HT1080, positive control 1 ug/ml) and 1136 ± 70.3 in test [1] (HT1080, positive control 5 ug/ml).

B1: PDGF-BB: platelet derived growth factor B form, positive control (protein, UniProt P01127 82-190, looked up)
Platelet-derived growth …: SLGSLTIAEPAMIAECKTRTEVFEISRRLIDRTNANFLVWPPCVEVQRCSGCCNNRNVQCRPTQVQLRPVQVRKIEIVRKKPIFKKATVTLEDHLACKCETVAAARPVT
As to B1, the “average number of cells that migrated ± SEM” value in test [2] was found to be 36 ± 4.5.
